US20100137303A1, “NEW COMPOUND 255” (AstraZeneca AB, priority 2008, published 2010)
Converted amounts (≈) assume the structure as drawn.

How the values were obtained:
Eco-tolC = test: Bacterial susceptibility testing in liquid media, Eco-tolC MIC; settings: Escherichia coli, read-out: Eco-tolC MIC
Description: (§1) Compounds may be tested for antimicrobial activity by susceptibility testing in liquid media. Compounds may be dissolved in dimethylsulfoxide and tested in 10 doubling dilutions in the susceptibility assays. The organisms used in the assay may be grown overnight on suitable agar media and then suspended in a liquid medium appropriate for the growth of the organism. The suspension can be a 0.5 McFarland and a further 1 in 10 dilution can be made into the same liquid medium to prepare the final organism suspension in 100 μL. Plates can be incubated under appropriate conditions at 37° C. for 24 hrs prior to reading.

M. tuberculosis = test: Mycobacteria susceptibility testing, Microplate Alamar Blue Assay, Mtu MIC; type: cell-based, Mycobacterium tuberculosis (Mtu); settings: Mycobacterium tuberculosis
Msm. GyrB = molecular target: T1, Msm. GyrB (Mycolicibacterium smegmatis, UniProt A0QNE0); test: Msmegmatis GyrB enzyme assay (ATPase, malachite green phosphate detection); type: biochemical; settings: read-out: Msm_GyrB IC50
T1 construct: 15 nM Msm; GyrB, 650 μM ATP, and compound in dimethyl sulfoxide
T1 sequence (A0QNE0 whole entry): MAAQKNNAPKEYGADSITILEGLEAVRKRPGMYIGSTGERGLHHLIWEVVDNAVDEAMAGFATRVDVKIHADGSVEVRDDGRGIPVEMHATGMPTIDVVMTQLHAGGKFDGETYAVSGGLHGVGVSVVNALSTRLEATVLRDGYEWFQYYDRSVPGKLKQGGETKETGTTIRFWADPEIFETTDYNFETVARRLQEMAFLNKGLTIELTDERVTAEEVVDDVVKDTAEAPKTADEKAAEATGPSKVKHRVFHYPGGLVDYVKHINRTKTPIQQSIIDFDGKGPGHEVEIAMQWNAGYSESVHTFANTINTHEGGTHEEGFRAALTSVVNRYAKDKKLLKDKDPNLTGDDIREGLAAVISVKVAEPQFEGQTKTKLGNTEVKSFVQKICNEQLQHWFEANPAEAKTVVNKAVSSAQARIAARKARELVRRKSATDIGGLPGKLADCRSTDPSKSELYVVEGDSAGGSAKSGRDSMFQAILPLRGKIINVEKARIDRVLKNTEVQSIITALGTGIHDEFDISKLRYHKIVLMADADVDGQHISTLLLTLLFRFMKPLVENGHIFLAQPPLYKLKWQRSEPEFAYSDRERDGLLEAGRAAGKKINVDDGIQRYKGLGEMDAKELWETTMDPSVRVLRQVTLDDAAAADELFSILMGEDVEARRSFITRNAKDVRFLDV
Description: Compounds may be tested for inhibition of GyrB ATPase activity using an ammonium molybdate/malachite green-based phosphate detection assay (Lanzetta, P. A., L. J. Alvarez, P. S. Reinach, and O. A. Candia, 1979, 100: 95-97; Innova Biosciences malachite green detection kit). Assays can be performed in multi-well plates in 50 μl reactions containing: 50 mM HEPES buffer pH 7.7, 250 mM potassium glutamate, 200 mM potassium chloride, 2 mM magnesium chloride, 2% glycerol, 1 mM 1,4-Dithio-DL-threitol, 0.005% Brij-35, 15 nM Msm. GyrB, 650 μM ATP, and compound in dimethyl sulfoxide. Reactions can be quenched with 12.5 μl of ammonium molybdate/malachite green detection reagent (Pi color lock gold & accelerator mix; Innova Biosciences), followed by the addition of 5 μl of stabilizer (Innova Biosciences) after 5 min of incubation.

Spn548 = test: Bacterial susceptibility testing in liquid media, Spn548 MIC; settings: Streptococcus pneumoniae, 24 h, read-out: Spn548 Mean MIC
Description: as §1

SMILES	MIC (Eco-tolC)	MIC (M. tuberculosis)	IC50 (Msm. GyrB)	MIC (Spn548)
C=CCNC(=O)Nc1nc2cc(-c3cncc(C(=O)N(C)C)c3)c(C)nc2s1 [Example 13, 5-[2-(3-Allyl-ureido)-5-methyl-thiazolo[5,4-b]pyridin-6-yl]-N,N-dimethyl-nicotinamide]	> 32 µg/mL	> 32 µg/mL	0.644 µM	4 µg/mL (≈ 10.1 µM)
C=CCNC(=O)Nc1nc2cc(Br)cnc2o1 [Example 14, 1-allyl-3-(6-bromooxazolo[5,4-b]pyridin-2-yl)urea]	32 µg/mL (≈ 108 µM)	> 16 µg/mL	24.7 µM	16 µg/mL (≈ 53.9 µM)
C=CCNC(=O)Nc1nc2cc(-c3cccnc3)cnc2o1 [Example 15, 1-allyl-3-(6-(pyridin-3-yl)oxazolo[5,4-b]pyridin-2-yl)urea]	> 64 µg/mL	> 16 µg/mL	2 µM	16 µg/mL (≈ 54.2 µM)
C=CCNC(=O)Nc1nc2cc(-c3cnc(OC)nc3)c(C)nc2o1 [Example 16, 3-allyl-1-[6-(2-methoxypyrimidin-5-yl)-5-methyl-oxazolo[5,4-b]pyridin-2-yl]urea]	> 32 µg/mL	> 32 µg/mL	1.61 µM	16 µg/mL (≈ 47 µM)
C=CCNC(=O)Nc1nc2cc(-c3cnc(OC)nc3)c(OCCN(C)C)nc2s1 [Example 17, 1-allyl-3-(5-(2-(dimethylamino)ethoxy)-6-(2-methoxypyrimidin-5-yl)thiazolo[5,4-b]pyridin-2-yl)urea]	> 64 µg/mL	> 64 µg/mL	0.216 µM	16 µg/mL (≈ 37.3 µM)
CCNC(=O)Nc1nc2cc(-c3cnc(OC)nc3)cnc2o1 [Example 18, 1-ethyl-3-[6-(2-methoxypyrimidin-5-yl)[1,3]oxazolo[5,4-b]pyridin-2-yl]urea]	> 32 µg/mL	> 32 µg/mL	10.9 µM	> 32 µg/mL
C=CCNC(=O)Nc1nc2cc(-c3cncc(C(=O)NCCCN4CCCC4=O)c3)cnc2s1 [Example 19, N-[3-(2-oxopyrrolidin-1-yl)propyl]-5-{2-[(prop-2-en-1-ylcarbamoyl)amino][1,3]thiazolo[5,4-b]pyridin-6-yl}pyridine-3-carboxamide]	> 32 µg/mL	32 µg/mL (≈ 66.7 µM)	0.297 µM	> 32 µg/mL
C=CCNC(=O)Nc1nc2cc(-c3cnc(OC)nc3)c(OCCN3CCCC3)nc2s1 [Example 20, 1-[6-(2-methoxypyrimidin-5-yl)-5-(2-pyrrolidin-1-ylethoxy)[1,3]thiazolo[5,4-b]pyridin-2-yl]-3-prop-2-en-1-ylurea]	> 32 µg/mL	> 32 µg/mL	0.259 µM	> 32 µg/mL
C=CCNC(=O)Nc1nc2cc(-c3cncc(C(=O)NCC4CCOCC4)c3)cnc2s1 [Example 21, 5-{2-[(prop-2-en-1-ylcarbamoyl)amino][1,3]thiazolo[5,4-b]pyridin-6-yl}-N-(tetrahydro-2H-pyran-4-ylmethyl)pyridine-3-carboxamide]	> 32 µg/mL	> 64 µg/mL	0.236 µM	> 32 µg/mL
C=CCNC(=O)Nc1nc2cc(-c3cncc(C(=O)NC)c3)cnc2s1 [Example 22, N-methyl-5-{2-[(prop-2-en-1-ylcarbamoyl)amino][1,3]thiazolo[5,4-b]pyridin-6-yl}pyridine-3-carboxamide]	> 32 µg/mL	> 64 µg/mL	0.323 µM	> 32 µg/mL
C=CCNC(=O)Nc1nc2cc(-c3cncc(C(=O)NCC)c3)cnc2s1 [Example 23, N-ethyl-5-{2-[(prop-2-en-1-ylcarbamoyl)amino][1,3]thiazolo[5,4-b]pyridin-6-yl}pyridine-3-carboxamide]	> 32 µg/mL	> 64 µg/mL	0.404 µM	> 32 µg/mL
C=CCNC(=O)Nc1nc2cc(-c3cncc(C(=O)NCCC(C)C)c3)cnc2s1 [Example 24, N-(3-methylbutyl)-5-{2-[(prop-2-en-1-ylcarbamoyl)amino][1,3]thiazolo[5,4-b]pyridin-6-yl}pyridine-3-carboxamide]	> 32 µg/mL	> 64 µg/mL	0.583 µM	> 32 µg/mL
